# Experimental data reported in US8481732B2 (Incyte Corporation, priority 2009, dated 2013).
# Biological target: T1, histamine H4 receptor (Homo sapiens, UniProt Q9H3N8)
# T1 construct: expressed in transfected cells; host or cells: HEK293SFM cells (membrane preparation)
# Assay: H4 Membrane Binding Assay (3H-Histamine displacement)
# Conditions: membranes of recombinant HEK293SFM cells, 10 nM 3H-Histamine, 1.5 hr at room temperature
# Procedure, shortened: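 Membranes from HEK293SFM cells expressing human H4 (also human H1–H3, mouse H4), prepared in ice-cold 50 mM Tris-HCl pH 7.5. [3H]-histamine displacement, nonspecific binding defined with 1000× unlabeled ligand. Bound radioactivity separated on PEI-treated GF/B filters and measured by liquid scintillation counting.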
row,SMILES,IC50
1,"COC(=O)N1CCC(CC(=O)N2CCc3ccc(-c4cc(N5CCN(C)CC5)nc(N)n4)cc3C2)C1 (stereo not shown) [Example 118, Methyl 3-{2-[7-[2-amino-6-(4-methylpiperazin-1-yl)pyrimidin-4-yl]-3,4-dihydroisoquinolin-2(1H)-yl]-2-oxoethyl}pyrrolidine-1-carboxylate]",178 nM
2,"CN1CCN(c2cc(-c3ccc4c(c3)CN(C(=O)CC3(C#N)CCC3)CC4)nc(N)n2)CC1 [Example 120, 1-{2-[7-[2-Amino-6-(4-methylpiperazin-1-yl)pyrimidin-4-yl]-3,4-dihydroisoquinolin-2(1)-yl]-2-oxoethyl}cyclobutanecarbonitrile]",34 nM
3,"CN1CCN(c2cc(-c3ccc4c(c3)CN(C(=O)CC3(C#N)CCCC3)CC4)nc(N)n2)CC1 [Example 122, 1-{2-[7-[2-Amino-6-(4-methylpiperazin-1-yl)pyrimidin-4-yl]-3,4-dihydroisoquinolin-2(1H)-yl]-2-oxoethyl}cyclopentanecarbonitrile]",22 nM
4,"CN1CCN(c2cc(-c3ccc4c(c3)CN(C(=O)Cc3cncc(C#N)c3)CC4)nc(N)n2)CC1 [Example 125, 5-{2-[7-[2-Amino-6-(4-methylpiperazin-1-yl)pyrimidin-4-yl]-3,4-dihydroisoquinolin-2(1H)-yl]-2-oxoethyl}nicotinonitrile]",92 nM
5,"CC(NC(=O)N1CCc2ccc(-c3cc(N4CCN(C)CC4)nc(N)n3)cc2C1)c1cccnc1 (stereo not shown) [Example 126, 7-[2-Amino-6-(4-methylpiperazin-1-yl)pyrimidin-4-yl]-N-(1-pyridin-3-ylethyl)-3,4-dihydroisoquinoline-2(1H)-carboxamide]",569 nM
6,"CC(NC(=O)N1CCc2ccc(-c3cc(N4CCN(C)CC4)nc(N)n3)cc2C1)c1ccn(C)n1 (stereo not shown) [Example 127, 7-[2-Amino-6-(4-methylpiperazin-1-yl)pyrimidin-4-yl]-N-[1-(1-methyl-1H-pyrazol-3-yl)ethyl]-3,4-dihydroisoquinoline-2(1H)-carboxamide]",253 nM
7,"CN1CCN(c2nc(N)nc3cc(C(=O)NC(C#N)c4ccccc4)ccc23)CC1 (stereo not shown) [Example 129, 2-Amino-N-[cyano(phenyl)methyl]-4-(4-methylpiperazin-1-yl)quinazoline-7-carboxamide]",156 nM
8,"CCOC(=O)[C@H](CCc1ccccc1)NC(=O)c1ccc2c(N3CCN(C)CC3)nc(N)nc2c1 [Example 130, Ethyl (2S)-2-({[2-amino-4-(4-methylpiperazin-1-yl)quinazolin-7-yl]carbonyl}amino)-4-phenylbutanoate]",71 nM
9,"COC(=O)[C@H](Cc1ccc(OC(=O)NC(C)C)cc1)NC(=O)c1ccc2c(N3CCN(C)CC3)nc(N)nc2c1 [Example 135, (S)-Methyl 2-(2-amino-4-(4-methylpiperazin-1-yl)quinazoline-7-carboxamido)-3-(4-(isopropylcarbamoyloxy)phenyl)propanoate]",70 nM
10,"CC(C)Oc1ccc(C[C@H](NC(=O)c2ccc3c(N4CCN(C)CC4)nc(N)nc3c2)C(=O)N(C)C)cc1 [Example 136, (S)-2-amino-N-(1-(dimethylamino)-3-(4-isopropoxyphenyl)-1-oxopropan-2-yl)-4-(4-methylpiperazin-1-yl)quinazoline-7-carboxamide]",59 nM
11,"CN1CCN(c2nc(N)nc3cc(C(=O)N[C@@H](Cc4ccc(-c5ccccc5)cc4)C(=O)N(C)C)ccc23)CC1 [Example 139, 2-Amino-N-[(1S)-1-(biphenyl-4-ylmethyl)-2-(dimethylamino)-2-oxoethyl]-4-(4-methylpiperazin-1-yl)quinazoline-7-carboxamide]",25 nM
12,"COC(=O)[C@H](Cc1ccc(-c2cnn(C)c2)cc1)NC(=O)c1ccc2c(N3CCN(C)CC3)nc(N)nc2c1 [Example 140, Methyl (2S)-2-({[2-amino-4-(4-methylpiperazin-1-yl)quinazolin-7yl]carbonyl}amino)-3-[4-(1-methyl-1H-pyrazol-4-yl)phenyl]propanoate]",42 nM
13,"CC(Cc1cc2ccccc2o1)NC(=O)c1ccc2c(N3CCN(C)CC3)nc(N)nc2c1 (stereo not shown) [Example 141, 2-Amino-N-[2-(1-benzofuran-2-yl)-1-methylethyl]-4-(4-methylpiperazin-1-yl)quinazoline-7-carboxamide]",71 nM
14,"CC(Cc1ccc(OC2CCCC2)cc1)NC(=O)c1ccc2c(N3CCN(C)CC3)nc(N)nc2c1 (stereo not shown) [Example 143, 2-Amino-N-{2-[4-(cyclopentyloxy)phenyl]-1-methylethyl}-4-(4-methylpiperazin-1-yl)quinazoline-7-carboxamide]",37 nM
15,"CN1CCN(c2nc(N)nc3cc(C(=O)N[C@@H](Cc4ccc(-c5cccs5)cc4)C(=O)N(C)C)ccc23)CC1 [Example 148, 2-Amino-N-{(1S)-2-(dimethylamino)-2-oxo-1-[4-(2-thienyl)benzyl]ethyl}-4-(4-methylpiperazin-1-yl)quinazoline-7-carboxamide]",18 nM

# The remaining lines, values ahead:
row,IC50,SMILES
1,183 nM,"CN1CCN(c2cc(-c3ccc4c(c3)CN(C(=O)NC3(C(F)(F)F)CC3)CC4)nc(N)n2)CC1 [Example 117, 7-[2-amino-6-(4-methylpiperazin-1-yl)pyrimidin-4-yl]-N-[1-(trifluoromethyl)cyclopropyl]-3,4-dihydroisoquinoline-2(1H)-carboxamide]"
2,70 nM,"CC(C)OC(=O)N1CCC(CC(=O)N2CCc3ccc(-c4cc(N5CCN(C)CC5)nc(N)n4)cc3C2)C1 (stereo not shown) [Example 119, Isopropyl 3-{2-[7-[2-amino-6-(4-methylpiperazin-1-yl)pyrimidin-4-yl]-3,4-dihydroisoquinolin-2(1H)-yl]-2-oxoethyl}pyrrolidine-1-carboxylate]"
3,39 nM,"CN1CCN(c2cc(-c3ccc4c(c3)CN(C(=O)CC(C)(C)C#N)CC4)nc(N)n2)CC1 [Example 121, 4-[7-[2-Amino-6-(4-methylpiperazin-1-yl)pyrimidin-4-yl]-3,4-dihydroisoquinolin-2(1H)-yl]-2,2-dimethyl-4-oxobutanenitrile]"
4,105 nM,"CN1CCN(c2cc(-c3ccc4c(c3)CN(C(=O)CC(C)(C#N)C3CC3)CC4)nc(N)n2)CC1 (stereo not shown) [Example 123, 4-[7-[2-Amino-6-(4-methylpiperazin-1-yl)pyrimidin-4-yl]-3,4-dihydroisoquinolin-2(1H)-yl]-2-cyclopropyl-2-methyl-4-oxobutanenitrile]"
5,36 nM,"CN1CCN(c2cc(-c3ccc4c(c3)CN(C(=O)CC(C#N)c3ccccc3)CC4)nc(N)n2)CC1 (stereo not shown) [Example 124, 4-[7-[2-Amino-6-(4-methylpiperazin-1-yl)pyrimidin-4-yl]-3,4-dihydroisoquinolin-2(1H)-yl]-4-oxo-2-phenylbutanenitrile]"
6,45 nM,"CN1CCN(c2cc(-c3ccc4c(c3)CN(C(=O)Cc3ccc(N5CCCC5)nc3)CC4)nc(N)n2)CC1 [Example 128, 4-(4-Methylpiperazin-1-yl)-6-{2-[(6-pyrrolidin-1-ylpyridin-3-yl)acetyl]-1,2,3,4-tetrahydroisoquinolin-7-yl}pyrimidin-2-amine]"
7,17 nM,"CN1CCN(c2nc(N)nc3cc(C(=O)NCc4ccc(Cl)c(Cl)c4)ccc23)CC1 [Example 131, 2-Amino-N-(3,4-dichlorobenzyl)-4-(4-methylpiperazin-1-yl)quinazoline-7-carboxamide]"
8,139 nM,"CN1CCN(c2nc(N)nc3cc(C(=O)NCC(=O)OCc4ccccc4)ccc23)CC1 [Example 132, Benzyl({[2-amino-4-(4-methylpiperazin-1-yl)quinazolin-7yl]carbonyl}amino)acetate]"
9,29 nM,"COC(=O)[C@H](Cc1ccc(OC(C)C)cc1)NC(=O)c1ccc2c(N3CCN(C)CC3)nc(N)nc2c1 [Example 134, Methyl (2S)-2-({[2-amino-4-(4-methylpiperazin-1-yl)quinazolin-7-yl]carbonyl}amino)-3-(4-isopropoxyphenyl)propanoate]"
10,42 nM,CC(C)Oc1ccc(C[C@@H](C#N)NC(=O)c2ccc3c(N4CCN(C)CC4)nc(N)nc3c2)cc1 [Example 137]
11,23 nM,"COC(=O)[C@H](Cc1ccc(-c2ccccc2)cc1)NC(=O)c1ccc2c(N3CCN(C)CC3)nc(N)nc2c1 [Example 138, Methyl (2S)-2-({[2-amino-4-(4-methylpiperazin-1-yl)quinazolin-7-yl]carbonyl}amino)-3-biphenyl-4-ylpropanoate]"
12,34 nM,"CC(Cc1ccc(Oc2ccccc2)cc1)NC(=O)c1ccc2c(N3CCN(C)CC3)nc(N)nc2c1 (stereo not shown) [Example 142, 2-Amino-N-[1-methyl-2-(4-phenoxyphenyl)ethyl]-4-(4-methylpiperazin-1-yl)quinazoline-7-carboxamide]"
13,190 nM,"CN1CCN(c2nc(N)nc3cc(C(=O)NC(Cc4nc5ccccc5s4)C(=O)N(C)C)ccc23)CC1 (stereo not shown) [Example 144, 2-Amino-N-[1-(1,3-benzothiazol-2-ylmethyl)-2-(dimethylamino)-2-oxoethyl]-4-(4-methylpiperazin-1-yl)quinazoline-7-carboxamide]"
14,34 nM,"CN1CCN(c2nc(N)nc3cc(C(=O)NC(Cc4ccc5c(c4)OC(F)(F)O5)C(=O)N(C)C)ccc23)CC1 (stereo not shown) [Example 145, 2-Amino-N-[1-[(2,2-difluoro-1,3-benzodioxol-5-yl)methyl]-2-(dimethylamino)-2-oxoethyl]-4-(4-methylpiperazin-1-yl)quinazoline-7-carboxamide]"
15,65 nM,"CN1CCN(c2nc(N)nc3cc(C(=O)NC(Cc4cccc(Oc5ccccc5)c4)C(=O)N(C)C)ccc23)CC1 (stereo not shown) [Example 146, 2-Amino-N-[2-(dimethylamino)-2-oxo-1-(3-phenoxybenzyl)ethyl]-4-(4-methylpiperazin-1-yl)quinazoline-7-carboxamide]"
16,71 nM,"CN1CCN(c2nc(N)nc3cc(C(=O)NC(Cc4ccc(-c5ccccc5)s4)C(=O)N(C)C)ccc23)CC1 (stereo not shown) [Example 147, 2-Amino-N-{2-(dimethylamino)-2-oxo-1-[(5-phenyl-2-thienyl)methyl]ethyl}-4-(4-methylpiperazin-1-yl)quinazoline-7-carboxamide]"
